# Laboratory results published in paper PMC10460054, “Multiplex Quantitative Analysis of 9 Compounds of Scutellaria baicalensis Georgi in the Plasma of Respiratory Syncytial Virus-Infected Mice Based on HPLC-MS/MS and Pharmacodynamic Effect Correlation Analysis” (Molecules, 2023).
# What was measured:
# [1] = tested on: respiratory syncytial virus (RSV); test: Lung index and lung index repair rate in RSV-infected mice; assay type: in vivo; details: positive control groups
# Procedure: (§1) Male BALB/c mice, aged 2 weeks and weighing 10–12 g, were chosen for this study. They were acclimatized for 2 days and then randomly assigned to one of five groups: blank (C), model (M), positive control ribavirin (Y1), positive control lianhua qingwen granules (Y2), and Scutellaria baicalensis Georgi administration (H1-H12). Each group consisted of six mice, and their weights were recorded. The mice were pre-administered for 2 days, and on the third day, RSV virus (TCID50 = 10^−6) was inoculated through intranasal infection at a volume of 35 μL per mouse. The blank group was inoculated with normal saline of the same volume. After the inoculation of the RSV virus, the blank and model groups were given distilled water by gavage, while the drug-administered groups were given an aqueous extract of Scutellaria baicalensis Georgi (10 µL/g) once a day for 3 days. The mice were observed daily for their mental status, hair color, diet, and body weight. […] Lung tissues were weighed, the lung index was calculated, and the lung tissues were stored in the refrigerator at −80 °C for freezing.
# Based on the recorded body weight and lung tissue weight of mice in the blank, model, positive control, and administration groups, the lung index and lung index repair rate were calculated for each group. […]
# [2] = tested on: respiratory syncytial virus (RSV); test: Lung tissue viral load (RSV-F real-time PCR) and inhibition rate in RSV-infected mice; assay type: in vivo; details: positive control groups
# Procedure: as §1, with “volume.” for “volume. After the inoculation of the RSV virus, the blank and model groups were given distilled water by gavage, while the drug-administered groups were given an aqueous extract of Scutellaria baicalensis Georgi (10 µL/g) once a day for 3 days. The mice were observed daily for their mental status, hair color, diet, and body weight.”
# The F protein is a RSV-specific protein, so it can be used as a PCR gene indicator to indicate the viral load of lung tissue. […] After quantification, the RNA was reverse transcribed into cDNA, and the SYBR Green Master Mix reagent was used as the reaction system. […] The viral load inhibition rate was calculated using the 2^−ΔΔCt formula, and a graph depicting the change in lung tissue viral load over time was plotted, with time as the abscissa and lung tissue viral load as the ordinate. […]
# [3] = HPLC-MS/MS quantification of 9 compounds in plasma of RSV-infected mice after Scutellaria baicalensis Georgi administration; assay type: in vivo, BALB/c mice; parameters: drug-containing plasma content: unit not given here; details: for drug-containing plasma content: RSV-infected mice, mean ± SD, n = 6; for time of highest plasma concentration, first peak / time of highest plasma concentration, second peak: RSV-infected mice after Scutellaria baicalensis Georgi administration, double peak phenomenon
# Procedure: The study employed a Vanquish high-performance liquid chromatograph for chromatographic separation, with a HALO C18 column (2.1 × 100 mm, 2.7 μm) as the chromatographic column.
# Mass spectrometry was performed using a quadrupole-electrostatic field orbitrap desktop mass spectrometer equipped with an electrospray ion source (ESI). The ESI parameters were set as follows: the pyrolysis voltage was 3.0 kV, the auxiliary gas flow rate was 10 mL/min, the ion transport tube temperature was 350 °C, the auxiliary gas temperature was 350 °C, and the sheath gas flow rate was 45 L/min. Quantitative analysis was performed using the selective ion detection (SIM) mode (Table S1).
# Male BALB/c mice, aged 2 weeks and weighing 10–12 g, were chosen for this study. They were acclimatized for 2 days and then randomly assigned to one of five groups: blank (C), model (M), positive control ribavirin (Y1), positive control lianhua qingwen granules (Y2), and Scutellaria baicalensis Georgi administration (H1-H12). Each group consisted of six mice, and their weights were recorded. The mice were pre-administered for 2 days, and on the third day, RSV virus (TCID50 = 10^−6) was inoculated through intranasal infection at a volume of 35 μL per mouse. The blank group was inoculated with normal saline of the same volume. After the inoculation of the RSV virus, the blank and model groups were given distilled water by gavage, while the drug-administered groups were given an aqueous extract of Scutellaria baicalensis Georgi (10 µL/g) once a day for 3 days. The mice were observed daily for their mental status, hair color, diet, and body weight. […] It was then centrifuged at 3000 r/min for 10 min, and the upper layer of plasma was stored at −80℃. Lung tissues were weighed, the lung index was calculated, and the lung tissues were stored in the refrigerator at −80 °C for freezing.
# The plasma sample (200 μL) was processed in a 5 mL tube. Subsequently, 10 μL of 5% formic acid and 20 μL of 2 mol/L hydrochloric acid were added, followed by vortexing for 1 min with 10 μL of internal standard solution (100 ng/mL tinidazole). The extraction was completed by adding 2000 μL of acetonitrile solvent and vortexing for 2 min. The mixture was then centrifuged at 12,000 r/min at 4 °C for 10 min, and the supernatant solution was collected in a new centrifuge tube. The supernatant solution was dried by nitrogen at room temperature before being redissolved in 50 μL of 70% acetonitrile solution containing 0.1% formic acid. After vortexing for 1 min, the solution was centrifuged at 12,000 r/min at 4 °C for 10 min, and the resulting supernatant was injected for analysis. The injection volume was 3 μL.
# The drug-containing plasma at different time points was subjected to sample treatment. The HPLC-MS/MS analysis method was used to quantitatively detect the 9 compounds in the ion detection (SIM) mode. According to the relative peak area value = index peak area/internal standard peak area, the corresponding concentration value was calculated by substituting the standard curve of each component.
# [4] = Stability of 9 compounds in mouse plasma under storage conditions; assay type: in vitro ADME; details: n = 6; for Stability 3-Freeze-Thaw Cycles RE: 3 times repeated freeze-thaw at −80 °C; for Stability Short-Term RE: 12 h at 4 °C; for Stability Long-Term RE: −20 °C for 20 days
# RSV = details: cited from earlier work
# [5] = 0.083 h after last gavage of Scutellaria baicalensis Georgi extract
# [6] = 0.167 h after last gavage of Scutellaria baicalensis Georgi extract
# [7] = 0.25 h after last gavage of Scutellaria baicalensis Georgi extract
# [8] = 0.5 h after last gavage of Scutellaria baicalensis Georgi extract
# [9] = 1 h after last gavage of Scutellaria baicalensis Georgi extract
# [10] = 2 h after last gavage of Scutellaria baicalensis Georgi extract
# [11] = 4 h after last gavage of Scutellaria baicalensis Georgi extract
# [12] = 6 h after last gavage of Scutellaria baicalensis Georgi extract
# [13] = 8 h after last gavage of Scutellaria baicalensis Georgi extract
# [14] = 10 h after last gavage of Scutellaria baicalensis Georgi extract
# [15] = 12 h after last gavage of Scutellaria baicalensis Georgi extract
# [16] = 24 h after last gavage of Scutellaria baicalensis Georgi extract
# [17] = high QC (20,000 or 10,000 ng/mL)
Compound,"drug-containing plasma content [3, 5]","drug-containing plasma content [3, 6]","drug-containing plasma content [3, 7]","drug-containing plasma content [3, 8]","drug-containing plasma content [3, 9]","drug-containing plasma content [3, 10]","drug-containing plasma content [3, 11]","drug-containing plasma content [3, 12]","drug-containing plasma content [3, 13]","drug-containing plasma content [3, 14]","drug-containing plasma content [3, 15]","drug-containing plasma content [3, 16]","Stability 3-Freeze-Thaw Cycles RE [4, 17]",Stability 3-Freeze-Thaw Cycles RE ([4]; low QC (12.5 or 25.6 ng/mL)),Stability 3-Freeze-Thaw Cycles RE ([4]; medium QC (320 or 160 ng/mL)),"Stability Short-Term RE [4, 17]",Stability Short-Term RE ([4]; low QC (12.5 or 25.6 ng/mL)),Stability Short-Term RE ([4]; medium QC (320 or 160 ng/mL)),"Stability Long-Term RE [4, 17]",Stability Long-Term RE ([4]; low QC (12.5 or 25.6 ng/mL)),further results
"NC(=O)c1ncn([C@@H]2O[C@H](CO)[C@@H](O)[C@H]2O)n1 [Y1, ribavirin]",,,,,,,,,,,,,,,,,,,,,"Repair Rate (lung index) [1]: 58.33%; Lung Index ([1]; mean ± SD, n = 6): 0.85 ± 0.08 %; Inhibitory Rates (viral load) [2]: 61.26%; Viral Load ([2]; mean ± SD, n = 6): 2.27 ± 0.37 ×10^5 Copies/Ml"
O=c1cc(-c2ccccc2)oc2cc(O)cc(O)c12 [Chrysin],0,0,0,10.37± 2.12,15.38± 4.94,21.43± 4.86,12.37± 2.12,60.64± 2.86,0,0,0,0,−2.47%,−6.42%,−5.15%,−2.74%,−5.59%,−10.49%,−3.86%,−4.52%,Stability Long-Term RE ([4]; medium QC (320 or 160 ng/mL)): −9.37%
COc1c(O)cc(O)c2c(=O)cc(-c3ccccc3)oc12 [Wogonin],344.59± 1.64,981.37± 13.72,471.39± 1.78,222.21± 6.76,181.04± 4.74,10.35± 1.79,71.39± 17.8,2664.55± 129.18,97.31± 2.71,14.65± 8.42,3.41± 5.28,0,12.89%,−11.16%,9.82%,8.46%,−9.77%,11.75%,8.46%,−13.33%,"time of highest plasma concentration, first peak [3]: 0.167 h; time of highest plasma concentration, second peak [3]: 6 h; Stability Long-Term RE ([4]; medium QC (320 or 160 ng/mL)): 11.75%; IC50 against RSV (RSV): 7.4 µg/mL"
COc1c(O[C@@H]2O[C@H](C(=O)O)[C@@H](O)[C@H](O)[C@H]2O)cc(O)c2c(=O)cc(-c3ccccc3)oc12 [Wogonoside],553.37± 9.22,1829.58± 102.08,928.49± 33.77,776.20± 41.04,1078.05± 63.01,1333.51± 38.28,1372.78± 53.34,3829.58± 182.08,1825.89± 177.13,318.50± 23.92,188.85± 19.38,0,1.79%,−8.61%,0.60%,3.40%,−3.08%,−1.39%,3.40%,−2.30%,"time of highest plasma concentration, first peak [3]: 0.167 h; time of highest plasma concentration, second peak [3]: 6 h; Stability Long-Term RE ([4]; medium QC (320 or 160 ng/mL)): −2.01%"
